Test results from patent USRE35886E, “Phosphonic acid derivatives and use thereof” (Takeda Chemical Industries, Ltd., priority 1991, dated 1998).
Where two headings read alike, the source gives them in different places. Where a SMILES comes first, the peptide text is derived from it. Where no end group is shown, it is not given here. [ ]: non-standard residue; d: D form. The star is where a group is joined. Sta = CC(C)C[C@H](N)[C@@H](O)CC(=O)O; Isovaleryl = CC(C)CC(=O)*

Columns and labels:
[1] = biological target: T1, Endothelin-Converting Enzyme (Sus scrofa, UniProt A0A8W4FBH0); test: Measurement of endothelin-converting enzyme inhibiting activity of phosphonic acid derivatives (pig big endothelin I (1-39) substrate, endothelin I sandwich enzyme immunoassay); assay type: biochemical; details: 37° C., 1 hour, pH 7.2, pig lung solubilized membrane fraction
T1 construct: 1.0% Triton X-100 was added to solubilize enzyme activity; from tissue; host or cells: pig lung, solubilised 100,000×G membrane fraction
T1 sequence (A0A8W4FBH0 1-751): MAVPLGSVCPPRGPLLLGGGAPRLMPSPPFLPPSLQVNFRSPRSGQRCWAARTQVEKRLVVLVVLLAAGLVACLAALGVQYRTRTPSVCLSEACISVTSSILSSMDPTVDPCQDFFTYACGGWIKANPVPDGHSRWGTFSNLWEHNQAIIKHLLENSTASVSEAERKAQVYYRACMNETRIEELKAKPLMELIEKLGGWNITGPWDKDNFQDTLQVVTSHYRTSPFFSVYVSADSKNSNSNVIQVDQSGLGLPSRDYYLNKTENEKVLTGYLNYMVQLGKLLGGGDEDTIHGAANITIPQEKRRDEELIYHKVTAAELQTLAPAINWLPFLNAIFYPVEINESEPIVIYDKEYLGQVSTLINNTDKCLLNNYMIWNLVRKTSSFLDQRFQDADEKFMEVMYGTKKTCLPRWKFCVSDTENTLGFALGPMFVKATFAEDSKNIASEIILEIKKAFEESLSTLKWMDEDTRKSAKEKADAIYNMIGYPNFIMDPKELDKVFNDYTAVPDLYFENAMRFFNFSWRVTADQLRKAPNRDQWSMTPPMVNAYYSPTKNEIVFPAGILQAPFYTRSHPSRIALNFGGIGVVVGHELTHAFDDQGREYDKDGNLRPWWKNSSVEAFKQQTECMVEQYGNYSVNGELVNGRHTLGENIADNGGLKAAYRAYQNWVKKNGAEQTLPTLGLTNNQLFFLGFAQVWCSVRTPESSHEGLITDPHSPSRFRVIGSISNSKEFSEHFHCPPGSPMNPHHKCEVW
Method: Measurement of Endothelin-Converting Enzyme Inhibiting Activity of Phosphonic Acid Amide Derivatives
In 1.5-ml centrifugal tube (BIO-BIK), 80 μl of 50 mM bis-Trispropane-hydrochloric acid buffer (pH 7.2) supplemented with 1.0 mg/ml bovine serum albumin, 0.1M sodium chloride, 1.0 mM phenylmethanesulfonyl fluoride (PMSF, Wako Pure Cnemical Industries), 1.0 μg/ml leupeptin (Peptide Institute Inc.), 1.0 μg/ml chymostatin (Peptide Institute Inc.), 1.0 μg/ml pepstatin A (Peptide Institute Inc.), 1.0 μM E-64 (Peptide Institute Inc.), 1.0 μm thiorphan (Sigma) and 1.0 μM angiotensin-converting enzyme inhibitor [CV-5975, Inada et al., Japanese Journal of Pharmacology, 47, 135-141 (1988)], 5 μl of a sample solution to be tested (an aqueous solution or an aqueous solution containing 2% dimethyl sulfoxide) or 5 μl of distilled water for the control plot, and 10 μl of an endothelin-converting enzyme sample prepared as described in the following reference example were placed. After standing at 37° C. for 30 minutes, 5 μl of a substrate solution [physiological phosphate buffer (PBS, containing 0.2 g of potassium chloride, 0.2 g of potassium dihydrogenphosphate, 8.0 g of sodium chloride and 1.14 g of disodium hydrogenphosphate in 1,000 ml of distilled water) supplemented with 1.0×10^-6 M pig big endothelin I (1-39) (Peptide Institute Inc.) and 1.0 mg/ml bovine serum albumin] was added thereto to initiate enzyme reaction. After reaction at 37° C. for 1 hour, the reaction mixture was boiled in boiling water for 5 minutes, thereby terminating the reaction: The resulting insoluble material was removed by centrifugation, and endothelin I (1-21) produced by the enzyme reaction contained in 10 μl of the supernatant was quantified by the endothelin I-specific sandwich enzyme immunoassay method already established [Suzuki et al., J. Immuno. Meth., 188, 245-250 (1989)], and compared with the amount of endothelin produced in the control plot to evaluate the enzyme inhibiting activity.
As endothelin-converting enzymes existing in organisms, two kinds of metalloenzymes different in enzymological properties are generally known. One exits in the cytoplasms, and the other is membrane-bound. The latter is characterized by that it is inhibited with phosphoramidon known as an inhibitor for metalloproteases [Matsumura et al., FEBS Lett., 272, 166-170 (1990)]. The endothelin-converting enzyme in the present invention means the membrane-bound enzyme of these two kinds of enzymes.
(§1) About 500 g of the pig lung (of one pig) was sliced and disrupted in 2.0 liter of PBS supplemented with 0.05% sodium azide, 1.0 mM dithiothreitol, 1.0 mM PMSF, 1.0 μg/ml leupeptin, 1.0 μg/ml chymostatin, 1.0 μg/ml pepstatin A and 1.0 μM E-64, and then homogenized (1 minute×5 times) by a Polytron mixer ([…]). The centrifuged supernatant (240×G, 5 minutes) was further centrifuged at 10,000×G for 15 minutes, and the resulting supernatant was subjected to ultracentrifuge (100,000×G, 90 minutes) to obtain membrane fraction as a precipitate. To this precipitate, 1.0% Triton X-100 was added to solubilize enzyme activity. […] This was diluted to 2.0 mg of protein/ml to use for assaying the activity of enzyme inhibitors.

[2] = biological target: T1, Endothelin-Converting Enzyme; test: Inhibition effect of various protease inhibitors on endothelin-converting enzyme; assay type: biochemical, pig; details: for inhibition at 1000 µM / inhibition at 100 µM: read-out: Inhibiting Ratio (%); for inhibition at 100 µM: Concentration 100 μM
Method: as §1

[3] = biological target: T1, Endothelin-Converting Enzyme; test: Kinetic coefficient (Lineweaver-Burk plot); assay type: biochemical; details: substrate pig big endothelin, read-out: Michaelis coefficient
Method: The Michaelis coefficient of this enzyme to pig big endothelin was calculated to be about 5×10^-6 M from the Lineweaver-Burk plot.

[4] = test system: membrane-bound endothelin-converting enzyme; details: FEBS Lett., 272, 166-170 (1990); cited from earlier work

Molecule | IC50 [1] [nM] | further results
O=C(O)CN(CCN(CC(=O)O)CC(=O)O)CC(=O)O [Ethylenediaminetetraacetic acid] |  | inhibition at 1000 µM [2]: 70%
pig big endothelin: substrate; pig big endothelin I (1-39) (Peptide Institute Inc.) (CSCSSLMDKECVYFCHLDIIWVNTPEHIVPYGLGSPSRS; ends and bridges not checked; cysteine pairing not given here; UniProt P09558 53-91, looked up, fragment) |  | Km [3]: ~5 µM
CC[C@H](C)[C@H](NP(=O)(O)CCc1ccccc1)C(=O)N[C@@H](Cc1c[nH]c2ccccc12)C(=O)O [N-(Phenethylphosphonyl)-Ile--Trp.2Na, N-(Phenethylphosphonyl)-Ile-Trp.2Na] | 1200 | 
CC(C)C[C@H](NP(=O)(O)O[C@@H]1O[C@@H](C)[C@H](O)[C@@H](O)[C@H]1O)C(=O)N[C@@H](Cc1c[nH]c2ccccc12)C(=O)O [Phosphoramidone] |  | inhibition at 100 µM [2]: 70%; inhibition of membrane-bound enzyme (in words) [4]: inhibited
CC(=O)N[C@@H](CC(C)C)C(=O)N[C@@H](CC(C)C)C(=O)N[C@H](C=O)CCCNC(=N)N [Leupeptin] |  | inhibition at 100 µM [2]: 23%
CC(C)C[C@H](NC(=O)[C@@H](NC(=O)N[C@@H](Cc1ccccc1)C(=O)O)[C@@H]1CCN=C(N)N1)C(=O)N[C@H](C=O)Cc1ccccc1 [Chymostatin] |  | inhibition at 100 µM [2]: 2%
CC(C)C[C@H](NP(=O)(O)CCc1ccc2ccccc2c1)C(=O)N[C@@H](Cc1c[nH]c2ccccc12)C(=O)O [N-[2-(2-Naphthyl)ethylphosphonyl]-Leu-Trp.2Na] | 100 | 
c1cnc2c(c1)ccc1cccnc12 [o-Phenanthroline] |  | inhibition at 1000 µM ([2]; Concentration 1000 μM): 92%
CC(C)CCP(=O)(O)N[C@@H](CC(C)C)C(=O)N[C@@H](Cc1c[nH]c2ccccc12)C(=O)O [N-(Isoamylphosphonyl)-Leu--Trp.2Na, N-(Isoamylphosphonyl)-Leu-Trp.2Na] | 700 | 
O[C@H](CS)[C@H](O)CS (racemic) [Dithiothreitol] |  | inhibition at 1000 µM ([2]; Concentration 1000 μM): 96%
CC(C)C[C@H](NP(=O)(O)CCc1ccccc1)C(=O)N[C@@H](Cc1c[nH]c2ccccc12)C(=O)O [N-(Phenethylphosphonyl)-Leu--Trp.2Na, N-(Phenethylphosphonyl)-Leu-Trp.2Na] | 200 | 
CC(C)CC(=O)N[C@H](C(=O)N[C@H](C(=O)N[C@@H](CC(C)C)[C@@H](O)CC(=O)N[C@@H](C)C(=O)N[C@@H](CC(C)C)[C@@H](O)CC(=O)O)C(C)C)C(C)C [Pepstatin] (Isovaleryl-VV[Sta]A[Sta]-OH) |  | inhibition at 100 µM [2]: 20%
CC(C)C[C@H](NC(=O)[C@H]1O[C@@H]1C(=O)O)C(=O)NCCCCN=C(N)N [Example E-64] |  | inhibition at 100 µM [2]: 9%
O=S(=O)(F)Cc1ccccc1 [PMSF, phenylmethanesulfonyl fluoride] |  | Inhibiting Ratio (%) ([2]; Concentration 1000 μM): 32%
CC(C)C[C@H](NP(=O)(O)Cc1ccc2ccccc2c1)C(=O)N[C@@H](Cc1c[nH]c2ccccc12)C(=O)O [N-(2-Naphthylmethylphosphonyl)-Leu-Trp.2Na] | 1000 | 
O=C(O)[C@H](Cc1c[nH]c2ccccc12)NC(=O)[C@H](Cc1ccccc1)NP(=O)(O)CCc1ccccc1 [N-(Phenethylphosphonyl)-Phe--Trp.Na, N-(Phenethylphosphonyl)-Phe-Trp.2Na] | 500 | 

Continued, in another order:

IC50 [1] [nM] | Molecule | further results
1000 | O=C(O)[C@H](Cc1c[nH]c2ccccc12)NC(=O)[C@H](CC1CCCCC1)NP(=O)(O)CCc1ccccc1 [N-(Phenethylphosphonyl)-Cha--Trp.2Na, N-(Phenethylphosphonyl)-Cha-Trp.2Na] | 
200 | CC(C)C[C@H](NP(=O)(O)Cc1cccc2ccccc12)C(=O)N[C@@H](Cc1c[nH]c2ccccc12)C(=O)O [N-(1-Naphthylmethylphosphonyl)-Leu-Trp.2Na] | 
400 | CC(C)C[C@H](NP(=O)(O)CCc1cccc2ccccc12)C(=O)N[C@@H](Cc1c[nH]c2ccccc12)C(=O)O [N-[2-(1-Naphthyl)ethylphosphonyl]-Leu-Trp.2Na] | 
5700 | CC(C)C[C@H](NP(=O)(O)CCc1ccccc1)C(=O)N[C@@H](Cc1ccccc1)C(=O)O [N-(Phenethylphosphonyl)-Leu--Phe.2Na, N-(Phenethylphosphonyl)-Leu-Phe.2Na] | 
1400 | CCCC[C@H](NP(=O)(O)CCc1ccccc1)C(=O)N[C@@H](Cc1c[nH]c2ccccc12)C(=O)O [N-(Phenethylphosphonyl)-Nle--Trp.2Na, N-(Phenethylphosphonyl)-Nle-Trp.2Na] | 
4800 | CC(C)C[C@H](NC(=O)[C@H](CC(C)C)NP(=O)(O)CCc1ccccc1)C(=O)O [N-(Phenethylphosphonyl)-Leu--Leu.2Na, N-(Phenethylphosphonyl)-Leu-Leu.2Na] | 
2800 | CC(C)[C@H](NP(=O)(O)CCc1ccccc1)C(=O)N[C@@H](Cc1c[nH]c2ccccc12)C(=O)O [N-(Phenethylphosphonyl)-Val--Trp.2Na, N-(Phenethylphosphonyl)-Val-Trp.2Na] | 
